Test results: patent US20260262643A1, “HERBICIDAL BENZOXAZINES” (FMC CORPORATION, priority 2022, published 2026)

How the values were obtained:
[1] = tested on: soybean; assay: Test C postemergence; assay type: in vivo, Glycine max; conditions: 10 days, 0 to 100 scale (0 no effect, 100 complete control)
Outline: (§1)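 Test material, in non-phytotoxic solvent with surfactant, was sprayed on the soil directly after seeding (preemergence) or on young plants of 2–10 cm with one to two leaves (postemergence). Greenhouse, 10 days; 0–100 visual control scale.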

[2] = tested on: rice; assay: Test D flooded paddy test; assay type: in vivo, Oryza sativa; conditions: 250 g ai/ha, applied to paddy water, visual rating after 13 to 14 days, scale 0 to 100 (0 no effect, 100 complete control)
Outline: (§2)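 Visual ratings from 0, meaning no effect, to 100, meaning complete control, were assigned against untreated controls 13 to 14 days after compounds were added to the floodwater of pots kept 3 cm deep, with plants at the 2-leaf stage.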

[3] = tested on: sedge, umbrella; assay: Test D flooded paddy test; assay type: in vivo, Cyperus difformis; conditions: 250 g ai/ha, applied to paddy water, visual rating after 13 to 14 days, scale 0 to 100 (0 no effect, 100 complete control)
Outline: as §2

[4] = tested on: pigweed, palmer; assay: Test C preemergence; assay type: in vivo, Amaranthus palmeri
Outline: as §1

[5] = tested on: barnyardgrass; assay: Test D flooded paddy test; assay type: in vivo, Echinochloa crus-galli; conditions: 250 g ai/ha, applied to paddy water, visual rating after 13 to 14 days, scale 0 to 100 (0 no effect, 100 complete control)
Outline: as §2

[6] = tested on: horseweed; assay: Test C postemergence; assay type: in vivo, Erigeron canadensis; conditions: 10 days, 0 to 100 scale (0 no effect, 100 complete control)
Outline: as §1

[7] = tested on: kochia; assay: Test C postemergence; assay type: in vivo, Bassia scoparia; conditions: 10 days, 0 to 100 scale (0 no effect, 100 complete control)
Outline: as §1

[8] = tested on: oat, wild; assay: Test C preemergence; assay type: in vivo, Avena fatua
Outline: as §1

[9] = tested on: ryegrass, Italian; assay: Test C postemergence; assay type: in vivo, Lolium multiflorum; conditions: 10 days, 0 to 100 scale (0 no effect, 100 complete control)
Outline: as §1

[10] = tested on: soybean; assay: Test C preemergence; assay type: in vivo, Glycine max
Outline: as §1

[11] = tested on: ducksalad; assay: Test D flooded paddy test; assay type: in vivo, Heteranthera limosa; conditions: 250 g ai/ha, applied to paddy water, visual rating after 13 to 14 days, scale 0 to 100 (0 no effect, 100 complete control)
Outline: as §2

[12] = tested on: green foxtail; assay: Test C preemergence; assay type: in vivo, Setaria viridis
Outline: as §1

[13] = tested on: pigweed, palmer; assay: Test C postemergence; assay type: in vivo, Amaranthus palmeri; conditions: 10 days, 0 to 100 scale (0 no effect, 100 complete control)
Outline: as §1

[14] = tested on: barnyardgrass; assay: Test C preemergence; assay type: in vivo, Echinochloa crusgalli
Outline: as §1

[15] = tested on: wheat; assay: Test C preemergence; assay type: in vivo, Triticum aestivum
Outline: as §1

[16] = tested on: ragweed; assay: Test C preemergence; assay type: in vivo, Ambrosia artemisiifolia
Outline: as §1

[17] = tested on: oat, wild; assay: Test C postemergence; assay type: in vivo, Avena fatua; conditions: 10 days, 0 to 100 scale (0 no effect, 100 complete control)
Outline: as §1

[18] = tested on: corn; assay: Test C preemergence; assay type: in vivo, Zea mays
Outline: as §1

[19] = tested on: corn; assay: Test C postemergence; assay type: in vivo, Zea mays; conditions: 10 days, 0 to 100 scale (0 no effect, 100 complete control)
Outline: as §1

[20] = tested on: green foxtail; assay: Test C postemergence; assay type: in vivo, Setaria viridis; conditions: 10 days, 0 to 100 scale (0 no effect, 100 complete control)
Outline: as §1

[21] = tested on: blackgrass; assay: Test C postemergence; assay type: in vivo, Alopecurus myosuroides; conditions: 10 days, 0 to 100 scale (0 no effect, 100 complete control)
Outline: as §1

[22] = tested on: ryegrass, Italian; assay: Test C preemergence; assay type: in vivo, Lolium multiflorum
Outline: as §1

[23] = tested on: wheat; assay: Test C postemergence; assay type: in vivo, Triticum aestivum; conditions: 10 days, 0 to 100 scale (0 no effect, 100 complete control)
Outline: as §1

[24] = tested on: galium; assay: Test C postemergence; assay type: in vivo, Galium aparine; conditions: 10 days, 0 to 100 scale (0 no effect, 100 complete control)
Outline: as §1

[25] = tested on: kochia; assay: Test C preemergence; assay type: in vivo, Bassia scoparia
Outline: as §1

[26] = tested on: ragweed; assay: Test C postemergence; assay type: in vivo, Ambrosia artemisiifolia; conditions: 10 days, 0 to 100 scale (0 no effect, 100 complete control)
Outline: as §1

[27] = tested on: barnyardgrass; assay: Test C postemergence; assay type: in vivo, Echinochloa crusgalli; conditions: 10 days, 0 to 100 scale (0 no effect, 100 complete control)
Outline: as §1

[28] = tested on: blackgrass; assay: Test C preemergence; assay type: in vivo, Alopecurus myosuroides
Outline: as §1

[29] = 500 g ai/ha, preemergence, 0 to 100 scale (0 no effect, 100 complete control)
[30] = Preemergence, 125 g ai/ha, 0 to 100 scale, 0 no effect, 100 complete control

Cc1ncn(-c2ccc(C)c(C(=O)N3CC(C(F)(F)F)Oc4c(Cl)cccc43)c2)n1 (stereo not shown) [Compound 349]
Plant response rating, Soybean ([1]; 500 g ai/ha, postemergence): 100 | Plant response rating, Soybean ([1]; Postemergence, 125 g ai/ha): 100 | Plant response rating, Rice (Flood) [2]: 0 | Plant response rating, Sedge, Umbrella (Flood) [3]: 95 | Pigweed, Palmer plant response rating [4, 29]: 100 | Plant response rating, Pigweed, Palmer [4, 30]: 100 | Plant response rating, Barnyardgrass (Flood) [5]: 0 | Plant response rating, Horseweed ([6]; 500 g ai/ha, postemergence): 50 | Plant response rating, Horseweed ([6]; Postemergence, 125 g ai/ha): 10 | Plant response rating, Kochia ([7]; 500 g ai/ha, postemergence): 90 | Plant response rating, Kochia ([7]; Postemergence, 125 g ai/ha): 80 | Oat, Wild plant response rating [8, 29]: 90 | Plant response rating, Oat, Wild [8, 30]: 20 | Plant response rating, Ryegrass, Italian ([9]; 500 g ai/ha, postemergence): 80 | Plant response rating, Ryegrass, Italian ([9]; Postemergence, 125 g ai/ha): 50 | Soybean plant response rating [10, 29]: 100 | Plant response rating, Soybean [10, 30]: 50 | Plant response rating, Ducksalad (Flood) [11]: 0 | Foxtail, Green plant response rating [12, 29]: 100 | Plant response rating, Foxtail, Green [12, 30]: 100 | Plant response rating, Pigweed, Palmer ([13]; 500 g ai/ha, postemergence): 90 | Plant response rating, Pigweed, Palmer ([13]; Postemergence, 125 g ai/ha): 50 | Barnyardgrass plant response rating [14, 29]: 100 | Plant response rating, Barnyardgrass [14, 30]: 70 | Wheat plant response rating [15, 29]: 70 | Plant response rating, Wheat [15, 30]: 20 | Ragweed plant response rating [16, 29]: 80 | Plant response rating, Ragweed [16, 30]: 20 | Plant response rating, Oat, Wild ([17]; 500 g ai/ha, postemergence): 70 | Plant response rating, Oat, Wild ([17]; Postemergence, 125 g ai/ha): 30 | Corn plant response rating [18, 29]: 60 | Plant response rating, Corn [18, 30]: 40 | Plant response rating, Corn ([19]; 500 g ai/ha, postemergence): 90 | Plant response rating, Corn ([19]; Postemergence, 125 g ai/ha): 80 | Plant response rating, Foxtail, Green ([20]; 500 g ai/ha, postemergence): 90 | Plant response rating, Foxtail, Green ([20]; Postemergence, 125 g ai/ha): 70 | Plant response rating, Blackgrass ([21]; 500 g ai/ha, postemergence): 100 | Plant response rating, Blackgrass ([21]; Postemergence, 125 g ai/ha): 90 | Ryegrass, Italian plant response rating [22, 29]: 100 | Plant response rating, Ryegrass, Italian [22, 30]: 100 | Plant response rating, Wheat ([23]; 500 g ai/ha, postemergence): 80 | Plant response rating, Wheat ([23]; Postemergence, 125 g ai/ha): 30 | Plant response rating, Galium ([24]; 500 g ai/ha, postemergence): 100 | Plant response rating, Galium ([24]; Postemergence, 125 g ai/ha): 100 | Kochia plant response rating [25, 29]: 90 | Plant response rating, Kochia [25, 30]: 80 | Plant response rating, Ragweed ([26]; 500 g ai/ha, postemergence): 40 | Plant response rating, Ragweed ([26]; Postemergence, 125 g ai/ha): 30 | Plant response rating, Barnyardgrass ([27]; 500 g ai/ha, postemergence): 90 | Plant response rating, Barnyardgrass ([27]; Postemergence, 125 g ai/ha): 30 | Blackgrass plant response rating [28, 29]: 80 | Plant response rating, Blackgrass [28, 30]: 50
